Source: article PMC8185074, “Anchor extension: a structure-guided approach to design cyclic peptides targeting enzyme active sites” (Nature Communications, 2021)
Peptide text beside a SMILES is read from it.

Columns and labels:
Type in all cases: biochemical
HDAC3 = biological target: T1, HDAC3 (Homo sapiens, UniProt O15379); assay: HDAC3 inhibition, full IC50 measurement (Reaction Biology; fluorogenic p53 peptide RHKK(Ac)AMC)
T1 construct: purchased Reaction Biology Corporation (assay run by the CRO)
Procedure, shortened: (§1)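 Deacetylation of 50 μM RHKK(Ac)AMC is measured after 1 h at 30 °C in pH 8.0 Tris buffer (1% DMSO, 1 mg/ml BSA). Developer ends the reaction; the post-plateau 360/460 nm signal is fitted to IC50, averaging replicate measurements.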

HDAC6 = biological target: T2, HDAC6 (Homo sapiens, UniProt Q9UBN7); assay: HDAC6 inhibition, full IC50 measurement (Reaction Biology; fluorogenic p53 peptide RHKK(Ac)AMC)
T2 construct: purchased Reaction Biology Corporation (assay run by the CRO)
T2 sequence (Q9UBN7 1-1215): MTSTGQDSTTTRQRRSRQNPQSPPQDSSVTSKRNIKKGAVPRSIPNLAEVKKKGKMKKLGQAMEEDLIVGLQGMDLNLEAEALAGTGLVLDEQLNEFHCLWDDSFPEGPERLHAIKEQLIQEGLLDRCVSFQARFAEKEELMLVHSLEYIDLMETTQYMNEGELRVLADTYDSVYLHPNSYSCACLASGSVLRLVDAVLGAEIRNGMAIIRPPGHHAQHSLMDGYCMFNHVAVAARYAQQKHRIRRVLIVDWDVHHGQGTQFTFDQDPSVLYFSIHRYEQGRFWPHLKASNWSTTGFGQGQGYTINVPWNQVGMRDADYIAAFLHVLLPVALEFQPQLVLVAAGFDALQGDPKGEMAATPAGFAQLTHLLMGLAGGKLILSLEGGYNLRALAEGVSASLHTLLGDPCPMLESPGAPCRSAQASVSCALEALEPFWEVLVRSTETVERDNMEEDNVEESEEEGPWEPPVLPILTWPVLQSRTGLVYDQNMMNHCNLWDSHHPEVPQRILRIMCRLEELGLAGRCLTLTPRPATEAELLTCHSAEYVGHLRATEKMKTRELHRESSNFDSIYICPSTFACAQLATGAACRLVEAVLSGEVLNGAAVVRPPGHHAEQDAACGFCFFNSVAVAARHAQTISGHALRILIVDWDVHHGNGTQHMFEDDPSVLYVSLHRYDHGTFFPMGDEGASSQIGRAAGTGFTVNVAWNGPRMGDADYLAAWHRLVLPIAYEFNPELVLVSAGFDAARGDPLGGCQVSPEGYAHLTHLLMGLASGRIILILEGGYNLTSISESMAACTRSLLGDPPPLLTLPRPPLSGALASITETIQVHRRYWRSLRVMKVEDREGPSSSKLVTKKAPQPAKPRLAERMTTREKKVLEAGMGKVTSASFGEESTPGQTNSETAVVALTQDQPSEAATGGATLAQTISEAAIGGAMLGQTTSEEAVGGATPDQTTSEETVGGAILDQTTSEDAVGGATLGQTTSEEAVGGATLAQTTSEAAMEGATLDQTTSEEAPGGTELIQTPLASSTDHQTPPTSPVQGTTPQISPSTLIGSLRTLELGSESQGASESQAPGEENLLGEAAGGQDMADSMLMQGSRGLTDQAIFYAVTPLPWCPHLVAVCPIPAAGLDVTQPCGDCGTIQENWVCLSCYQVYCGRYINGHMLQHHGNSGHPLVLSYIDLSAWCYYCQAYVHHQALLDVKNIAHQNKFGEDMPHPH
Procedure, shortened: as §1

HDAC8 = biological target: T3, HDAC8 (Homo sapiens, UniProt Q9BY41); assay: HDAC8 inhibition, full IC50 measurement (Reaction Biology; fluorogenic p53 peptide RHKK(Ac)AMC); conditions: t1/t2 replicates
T3 construct: purchased Reaction Biology Corporation (assay run by the CRO)
T3 sequence (Q9BY41 1-377): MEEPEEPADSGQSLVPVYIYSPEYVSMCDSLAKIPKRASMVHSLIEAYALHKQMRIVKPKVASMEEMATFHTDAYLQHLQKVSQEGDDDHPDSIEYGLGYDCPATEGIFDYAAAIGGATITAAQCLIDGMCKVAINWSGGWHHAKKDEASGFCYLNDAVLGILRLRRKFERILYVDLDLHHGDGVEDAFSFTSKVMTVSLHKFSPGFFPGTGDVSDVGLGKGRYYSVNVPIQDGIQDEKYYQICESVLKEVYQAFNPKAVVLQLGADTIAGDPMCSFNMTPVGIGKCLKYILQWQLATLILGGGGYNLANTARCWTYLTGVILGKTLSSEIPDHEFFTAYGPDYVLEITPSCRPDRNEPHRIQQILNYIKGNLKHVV
Procedure, shortened: as §1

T1 sequence (O15379 whole entry): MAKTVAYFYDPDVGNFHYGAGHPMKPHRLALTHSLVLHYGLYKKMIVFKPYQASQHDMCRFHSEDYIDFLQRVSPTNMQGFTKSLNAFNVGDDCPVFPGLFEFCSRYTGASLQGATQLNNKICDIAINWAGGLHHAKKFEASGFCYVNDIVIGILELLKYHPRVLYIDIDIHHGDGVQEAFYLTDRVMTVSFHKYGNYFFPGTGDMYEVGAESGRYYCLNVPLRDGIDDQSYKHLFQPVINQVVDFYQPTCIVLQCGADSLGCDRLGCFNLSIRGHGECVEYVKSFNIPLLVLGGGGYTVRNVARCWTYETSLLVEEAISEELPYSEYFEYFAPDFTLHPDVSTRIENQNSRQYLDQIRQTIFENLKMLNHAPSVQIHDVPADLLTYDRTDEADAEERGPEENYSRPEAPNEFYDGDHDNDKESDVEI
T1 sequence (Q9Y618 395-489 partner limits assumed): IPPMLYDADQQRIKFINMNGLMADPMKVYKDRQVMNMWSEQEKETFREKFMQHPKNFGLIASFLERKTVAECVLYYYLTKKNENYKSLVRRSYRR

N=C(N)NCCC[C@@H]1NC(=O)[C@H](Cc2c[nH]c3ccccc23)NC(=O)[C@H](CC(=O)O)NC(=O)[C@@H](CO)NC(=O)[C@H](Cc2c[nH]c3ccccc23)NC(=O)[C@H](CCCCCS)NC(=O)[C@H](CCC(N)=O)NC1=O [des4.1.0, SHA-Trp-dSer-Asp-Trp-Arg-Gln] (HELM PEPTIDE1{D.W.R.Q.[O=C([C@H](CCCCCS)N[*:1])[*:2]].W.[dS]}$PEPTIDE1,PEPTIDE1,1:R1-7:R2$$$V2.0) was tested, and the “HDAC3 activity raw data (signal)” value (HDAC3; Conc. 1.00E-05 M, t1) was -1388, the “HDAC3 activity raw data (signal)” value (HDAC3; Conc. 1.00E-05 M, t2) was 157 and the “HDAC3 activity raw data (signal)” value (HDAC3; Conc. 1.11E-06 M, t1) was 49544. For the same molecule, the “HDAC3 activity raw data (signal)” value (HDAC3; Conc. 1.11E-06 M, t2) was 53052, the “HDAC3 activity raw data (signal)” value (HDAC3; Conc. 1.23E-07 M, t1) was 403506 and the “HDAC3 activity raw data (signal)” value (HDAC3; Conc. 1.23E-07 M, t2) was 392664. The “HDAC3 activity raw data (signal)” value (HDAC3; Conc. 1.37E-08 M, t1) was 878874, the “HDAC3 activity raw data (signal)” value (HDAC3; Conc. 1.37E-08 M, t2) was 905094 and the “HDAC3 activity raw data (signal)” value (HDAC3; Conc. 1.52E-09 M, t1) was 1051534. The “HDAC3 activity raw data (signal)” value (HDAC3; Conc. 1.52E-09 M, t2) was 1009763, the “HDAC3 activity raw data (signal)” value (HDAC3; Conc. 3.33E-06 M, t1) was 16525 and the “HDAC3 activity raw data (signal)” value (HDAC3; Conc. 3.33E-06 M, t2) was 4898. For the same molecule, the “HDAC3 activity raw data (signal)” value (HDAC3; Conc. 3.70E-07 M, t1) was 191695, the “HDAC3 activity raw data (signal)” value (HDAC3; Conc. 3.70E-07 M, t2) was 162137 and the “HDAC3 activity raw data (signal)” value (HDAC3; Conc. 4.12E-08 M, t1) was 681441. The “HDAC3 activity raw data (signal)” value (HDAC3; Conc. 4.12E-08 M, t2) was 656036, the “HDAC3 activity raw data (signal)” value (HDAC3; Conc. 4.57E-09 M, t1) was 1007447 and the “HDAC3 activity raw data (signal)” value (HDAC3; Conc. 4.57E-09 M, t2) was 1022661. The “HDAC3 activity raw data (signal)” value (HDAC3; Conc. 5.08E-10 M, t1) was 1094681, the “HDAC3 activity raw data (signal)” value (HDAC3; Conc. 5.08E-10 M, t2) was 1129520 and the “HDAC6 activity raw data (signal)” value (HDAC6; Conc. 1.00E-05 M, t1) was 7877. The “HDAC6 activity raw data (signal)” value (HDAC6; Conc. 1.00E-05 M, t2) was -8060, the “HDAC6 activity raw data (signal)” value (HDAC6; Conc. 1.11E-06 M, t1) was 16871 and the “HDAC6 activity raw data (signal)” value (HDAC6; Conc. 1.11E-06 M, t2) was 12343. The “HDAC6 activity raw data (signal)” value (HDAC6; Conc. 1.23E-07 M, t1) was 204372, the “HDAC6 activity raw data (signal)” value (HDAC6; Conc. 1.23E-07 M, t2) was 163263 and the “HDAC6 activity raw data (signal)” value (HDAC6; Conc. 1.37E-08 M, t1) was 1871464. For the same molecule, the “HDAC6 activity raw data (signal)” value (HDAC6; Conc. 1.37E-08 M, t2) was 1633652, the “HDAC6 activity raw data (signal)” value (HDAC6; Conc. 1.52E-09 M, t1) was 2518833 and the “HDAC6 activity raw data (signal)” value (HDAC6; Conc. 1.52E-09 M, t2) was 2655286. For the same molecule, the “HDAC6 activity raw data (signal)” value (HDAC6; Conc. 3.33E-06 M, t1) was 8242, the “HDAC6 activity raw data (signal)” value (HDAC6; Conc. 3.33E-06 M, t2) was -3634 and the “HDAC6 activity raw data (signal)” value (HDAC6; Conc. 3.70E-07 M, t1) was 49535. For the same molecule, the “HDAC6 activity raw data (signal)” value (HDAC6; Conc. 3.70E-07 M, t2) was 45420, the “HDAC6 activity raw data (signal)” value (HDAC6; Conc. 4.12E-08 M, t1) was 772837 and the “HDAC6 activity raw data (signal)” value (HDAC6; Conc. 4.12E-08 M, t2) was 534957. The “HDAC6 activity raw data (signal)” value (HDAC6; Conc. 4.57E-09 M, t1) was 2466106, the “HDAC6 activity raw data (signal)” value (HDAC6; Conc. 4.57E-09 M, t2) was 2168070 and the “HDAC6 activity raw data (signal)” value (HDAC6; Conc. 5.08E-10 M, t1) was 2603168. The “HDAC6 activity raw data (signal)” value (HDAC6; Conc. 5.08E-10 M, t2) was 2401605, the “HDAC8 activity raw data (signal)” value (HDAC8; peptide conc. 1.00E-05 M, listed as des4.1.0_t1) was 100967 and the “HDAC8 activity raw data (signal)” value (HDAC8; peptide conc. 1.00E-05 M, listed as des4.1.0_t2) was 38752. The “HDAC8 activity raw data (signal)” value (HDAC8; peptide conc. 1.11E-06 M, listed as des4.1.0_t1) was 234716, the “HDAC8 activity raw data (signal)” value (HDAC8; peptide conc. 1.11E-06 M, listed as des4.1.0_t2) was 226734 and the “HDAC8 activity raw data (signal)” value (HDAC8; peptide conc. 1.23E-07 M, listed as des4.1.0_t1) was 803512. The “HDAC8 activity raw data (signal)” value (HDAC8; peptide conc. 1.23E-07 M, listed as des4.1.0_t2) was 713240, the “HDAC8 activity raw data (signal)” value (HDAC8; peptide conc. 1.37E-08 M, listed as des4.1.0_t1) was 943537 and the “HDAC8 activity raw data (signal)” value (HDAC8; peptide conc. 1.37E-08 M, listed as des4.1.0_t2) was 964221. For the same molecule, the “HDAC8 activity raw data (signal)” value (HDAC8; peptide conc. 1.52E-09 M, listed as des4.1.0_t1) was 948817, the “HDAC8 activity raw data (signal)” value (HDAC8; peptide conc. 1.52E-09 M, listed as des4.1.0_t2) was 953073 and the “HDAC8 activity raw data (signal)” value (HDAC8; peptide conc. 3.33E-06 M, listed as des4.1.0_t1) was 100659. For the same molecule, the “HDAC8 activity raw data (signal)” value (HDAC8; peptide conc. 3.33E-06 M, listed as des4.1.0_t2) was 171679, the “HDAC8 activity raw data (signal)” value (HDAC8; peptide conc. 3.70E-07 M, listed as des4.1.0_t1) was 597298 and the “HDAC8 activity raw data (signal)” value (HDAC8; peptide conc. 3.70E-07 M, listed as des4.1.0_t2) was 553055. The “HDAC8 activity raw data (signal)” value (HDAC8; peptide conc. 4.12E-08 M, listed as des4.1.0_t1) was 940975, the “HDAC8 activity raw data (signal)” value (HDAC8; peptide conc. 4.12E-08 M, listed as des4.1.0_t2) was 825924 and the “HDAC8 activity raw data (signal)” value (HDAC8; peptide conc. 4.57E-09 M, listed as des4.1.0_t1) was 958670. For the same molecule, the “HDAC8 activity raw data (signal)” value (HDAC8; peptide conc. 4.57E-09 M, listed as des4.1.0_t2) was 869070, the “HDAC8 activity raw data (signal)” value (HDAC8; peptide conc. 5.08E-10 M, listed as des4.1.0_t1) was 1026116 and the “HDAC8 activity raw data (signal)” value (HDAC8; peptide conc. 5.08E-10 M, listed as des4.1.0_t2) was 927553.
